Results reported in paper PMC5218480 (PLoS ONE, 2017).

Tested on: MV-4-11 cells
Assay: Gene expression microarray analysis (Affymetrix PrimeView) and GSEA
Format: cell-based, human
Set-up: RFU PODN (11730768_x_at) / Fold change /veh PODN (11730768_x_at) / RFU LINC00158 (11744669_a_at) / Fold change /veh LINC00158 (11744669_a_at) / RFU DUSP10 (11751237_a_at) / Fold change /veh DUSP10 (11751237_a_at) / RFU ID3 (11757404_x_at) / Fold change /veh ID3 (11757404_x_at) / RFU PLEKHG5 (11737974_s_at) / Fold change /veh PLEKHG5 (11737974_s_at) / RFU LRRC4B (11730491_at) / Fold change /veh LRRC4B (11730491_at) / RFU GIMAP4 (11747438_a_at) / Fold change /veh GIMAP4 (11747438_a_at) / RFU KRT8 (11758183_x_at) / Fold change /veh KRT8 (11758183_x_at) / RFU CNN1 (11734310_a_at) / Fold change /veh CNN1 (11734310_a_at) / RFU VPS37D (11726825_at) / Fold change /veh VPS37D (11726825_at) / RFU C10orf10 (11716522_x_at) / Fold change /veh C10orf10 (11716522_x_at) / RFU KIR2DL2 /// KIR2DL4 /// KIR2DL5A /// KIR2DL5B /// KIR2DS1 /// KIR2DS2 /// KIR2DS3 /// KIR2DS4 /// KIR3DL3 /// KIR3DL3 /// KIR3DS1 (11738374_at) / Fold change /veh KIR2DL2 /// KIR2DL4 /// KIR2DL5A /// KIR2DL5B /// KIR2DS1 /// KIR2DS2 /// KIR2DS3 /// KIR2DS4 /// KIR3DL3 /// KIR3DL3 /// KIR3DS1 (11738374_at) / RFU C1QL1 (11718748_at) / Fold change /veh C1QL1 (11718748_at) / RFU TMPRSS4 (11747572_a_at) / Fold change /veh TMPRSS4 (11747572_a_at) / RFU HAMP (11756126_x_at) / Fold change /veh HAMP (11756126_x_at) / RFU RNFT2 (11725882_a_at) / Fold change /veh RNFT2 (11725882_a_at) / RFU NR4A2 (11747474_a_at) / Fold change /veh NR4A2 (11747474_a_at) / RFU ABCC12 (11746883_a_at) / Fold change /veh ABCC12 (11746883_a_at) / RFU TMEM136 (11760407_x_at) / Fold change /veh TMEM136 (11760407_x_at) / RFU CLDN22 /// WWC2 (11732394_at) / Fold change /veh CLDN22 /// WWC2 (11732394_at) / RFU HLA-DPB1 (11760878_x_at) / Fold change /veh HLA-DPB1 (11760878_x_at) / RFU SPINT1 (11716480_a_at) / Fold change /veh SPINT1 (11716480_a_at) / RFU GAP43 (11754022_s_at) / Fold change /veh GAP43 (11754022_s_at) / RFU A4GNT (11735810_at) / Fold change /veh A4GNT (11735810_at) / RFU PRB3 (11715151_x_at) / Fold change /veh PRB3 (11715151_x_at) / RFU TUBB4B (11761932_at) / Fold change /veh TUBB4B (11761932_at) / RFU CAPN14 (11732068_a_at) / Fold change /veh CAPN14 (11732068_a_at) / RFU TMCC2 (11721928_a_at) / Fold change /veh TMCC2 (11721928_a_at) / RFU IRGQ (11745062_a_at) / Fold change /veh IRGQ (11745062_a_at) / RFU FAM174B (11720279_a_at) / Fold change /veh FAM174B (11720279_a_at) / RFU TMPRSS4 (11748680_a_at) / Fold change /veh TMPRSS4 (11748680_a_at) / RFU FAM212B (11763350_a_at) / Fold change /veh FAM212B (11763350_a_at) / RFU PLEKHG5 (11743358_a_at) / Fold change /veh PLEKHG5 (11743358_a_at) / RFU ZSCAN30 (11745921_a_at) / Fold change /veh ZSCAN30 (11745921_a_at) / RFU CMKLR1 (11741424_a_at) / Fold change /veh CMKLR1 (11741424_a_at) / RFU LOC101060620 /// MAPK8IP1 (11723275_at) / Fold change /veh LOC101060620 /// MAPK8IP1 (11723275_at) / RFU SPTSSB (11747773_x_at) / Fold change /veh SPTSSB (11747773_x_at) / RFU PRSS12 (11739890_at) / Fold change /veh PRSS12 (11739890_at) / RFU BIN1 (11741810_x_at) / Fold change /veh BIN1 (11741810_x_at) / RFU WNT11 (11732464_a_at) / Fold change /veh WNT11 (11732464_a_at) / RFU C10orf10 (11716521_a_at) / Fold change /veh C10orf10 (11716521_a_at) / RFU C5orf56 (11738089_at) / Fold change /veh C5orf56 (11738089_at) / RFU CYB561 (11721691_x_at) / Fold change /veh CYB561 (11721691_x_at) / RFU ANKRD19P (11752326_a_at) / Fold change /veh ANKRD19P (11752326_a_at) / RFU OR2T12 /// OR2T33 /// OR2T8 (11738714_s_at) / Fold change /veh OR2T12 /// OR2T33 /// OR2T8 (11738714_s_at) / RFU VCAN (11748164_a_at) / Fold change /veh VCAN (11748164_a_at) / RFU JSRP1 (11732532_at) / Fold change /veh JSRP1 (11732532_at) / RFU KRTAP10-11 (11738290_x_at) / Fold change /veh KRTAP10-11 (11738290_x_at) / RFU MYO3A (11730013_a_at) / Fold change /veh MYO3A (11730013_a_at) / RFU EBF3 (11725865_a_at) / Fold change /veh EBF3 (11725865_a_at) / RFU CAMK2N1 (11719241_x_at) / Fold change /veh CAMK2N1 (11719241_x_at) / RFU C5orf56 (11738088_a_at) / Fold change /veh C5orf56 (11738088_a_at) / RFU OLFML3 (11715873_a_at) / Fold change /veh OLFML3 (11715873_a_at) / RFU LOC100653217 /// NTM (11731650_a_at) / Fold change /veh LOC100653217 /// NTM (11731650_a_at) / RFU MAPK11 (11762145_a_at) / Fold change /veh MAPK11 (11762145_a_at) / RFU FIZ1 (11724087_x_at) / Fold change /veh FIZ1 (11724087_x_at) / RFU OASL (11726364_x_at) / Fold change /veh OASL (11726364_x_at) / RFU SOX15 (11748057_x_at) / Fold change /veh SOX15 (11748057_x_at) / RFU CD79A (11719716_a_at) / Fold change /veh CD79A (11719716_a_at) / RFU HIST1H1D (11736915_at) / Fold change /veh HIST1H1D (11736915_at) / RFU CASKIN2 (11723855_a_at) / Fold change /veh CASKIN2 (11723855_a_at) / RFU LOC730098 (11760151_x_at) / Fold change /veh LOC730098 (11760151_x_at) / RFU OR4N2 (11742367_at) / Fold change /veh OR4N2 (11742367_at) / RFU PRRT2 (11749266_a_at) / Fold change /veh PRRT2 (11749266_a_at) / RFU SNX32 (11753110_a_at) / Fold change /veh SNX32 (11753110_a_at) / RFU CDHR5 (11726645_a_at) / Fold change /veh CDHR5 (11726645_a_at) / RFU RCAN1 (11760418_a_at) / Fold change /veh RCAN1 (11760418_a_at) / RFU FAM167A (11723789_a_at) / Fold change /veh FAM167A (11723789_a_at) / RFU FAM26E (11764081_at) / Fold change /veh FAM26E (11764081_at) / RFU ISYNA1 (11749810_s_at) / Fold change /veh ISYNA1 (11749810_s_at) / RFU ACY1 (11761880_at) / Fold change /veh ACY1 (11761880_at) / RFU 11764098_at / Fold change /veh 11764098_at / RFU SAMD14 (11745864_x_at) / Fold change /veh SAMD14 (11745864_x_at) / RFU NPB (11741838_a_at) / Fold change /veh NPB (11741838_a_at) / RFU TMPRSS6 (11731388_a_at) / Fold change /veh TMPRSS6 (11731388_a_at) / RFU KRTAP10-2 (11738614_at) / Fold change /veh KRTAP10-2 (11738614_at) / RFU ARHGAP8 /// PRR5-ARHGAP8 (11727945_x_at) / Fold change /veh ARHGAP8 /// PRR5-ARHGAP8 (11727945_x_at) / RFU KRTAP5-7 /// NADSYN1 (11734609_at) / Fold change /veh KRTAP5-7 /// NADSYN1 (11734609_at) / RFU RASL12 (11751679_a_at) / Fold change /veh RASL12 (11751679_a_at) / RFU CDKN2B (11736163_a_at) / Fold change /veh CDKN2B (11736163_a_at) / RFU PRF1 (11729649_at) / Fold change /veh PRF1 (11729649_at) / RFU, ZNF638 /// ZNF638-IT1 / Fold change vs veh, ZNF638 /// ZNF638-IT1 / RFU, PANK3 / Fold change vs veh, PANK3 / RFU, SH3YL1 / Fold change vs veh, SH3YL1 / RFU, ZEB2 / Fold change vs veh, ZEB2 / RFU, NRIP1 / Fold change vs veh, NRIP1 / RFU, PTTG1IP / Fold change vs veh, PTTG1IP / RFU, CAPN2 / Fold change vs veh, CAPN2 / RFU, MED14 / Fold change vs veh, MED14 / RFU, SNORA58 / Fold change vs veh, SNORA58 / RFU, C1orf63 / Fold change vs veh, C1orf63 / RFU, LRRFIP1 / Fold change vs veh, LRRFIP1 / RFU, NDUFAF7 / Fold change vs veh, NDUFAF7 / RFU, SLC12A2 / Fold change vs veh, SLC12A2 / RFU, IBTK / Fold change vs veh, IBTK / RFU, ESF1 / Fold change vs veh, ESF1 / Fold change vs veh, TMEM50B / RFU, TAOK1 / Fold change vs veh, TAOK1 / RFU, ACBD3 / Fold change vs veh, ACBD3 / RFU, TMA16 / Fold change vs veh, TMA16 / RFU, RWDD3 / Fold change vs veh, RWDD3 / RFU, BCAT1 / Fold change vs veh, BCAT1 / RFU, EDEM3 / Fold change vs veh, EDEM3 / RFU, TMEM33 / Fold change vs veh, TMEM33 / RFU, WDR75 / Fold change vs veh, WDR75 / RFU, AHCTF1 / Fold change vs veh, AHCTF1 / RFU, TFRC / Fold change vs veh, TFRC / RFU, ZDHHC17 / Fold change vs veh, ZDHHC17 / RFU, NOM1 / Fold change vs veh, NOM1 / RFU, ARL8B / Fold change vs veh, ARL8B / RFU, ZBTB11 / Fold change vs veh, ZBTB11 / RFU, TAMM41 / Fold change vs veh, TAMM41 / RFU, KIAA1704 /// LOC100996395 / Fold change vs veh, KIAA1704 /// LOC100996395 / RFU, ING1 / Fold change vs veh, ING1 / RFU, TRMT61B / Fold change vs veh, TRMT61B / RFU, FUBP3 / Fold change vs veh, FUBP3 / RFU, TP53 / Fold change vs veh, TP53 / RFU, TNKS2 / Fold change vs veh, TNKS2 / RFU, ZFP14 / Fold change vs veh, ZFP14 / RFU, ACTR2 / Fold change vs veh, ACTR2 / RFU, PPP3R1 / Fold change vs veh, PPP3R1 / RFU, PIK3R1 / Fold change vs veh, PIK3R1 / RFU, HNRNPA1 / Fold change vs veh, HNRNPA1 / RFU, RNF170 / Fold change vs veh, RNF170 / RFU, ZNF28 / Fold change vs veh, ZNF28 / RFU, RNGTT / Fold change vs veh, RNGTT / RFU, OGT / Fold change vs veh, OGT / RFU, BRD1 / Fold change vs veh, BRD1 / RFU, MARS / Fold change vs veh, MARS / RFU, ZNF655 / Fold change vs veh, ZNF655 / RFU, FAHD1 / Fold change vs veh, FAHD1 / RFU, BDP1 / Fold change vs veh, BDP1 / RFU, LRRCC1 / Fold change vs veh, LRRCC1 / RFU, ARID1A / Fold change vs veh, ARID1A / RFU, ZNF146 / Fold change vs veh, ZNF146 / RFU, ZNF330 / Fold change vs veh, ZNF330 / RFU, GPN3 / Fold change vs veh, GPN3 / RFU, C9orf123 / Fold change vs veh, C9orf123 / RFU, N4BP2L2 / Fold change vs veh, N4BP2L2 / RFU, ARFIP1 / Fold change vs veh, ARFIP1 / RFU, FAM179B / Fold change vs veh, FAM179B / RFU, BCL10 / Fold change vs veh, BCL10 / RFU, UHRF1BP1L / Fold change vs veh, UHRF1BP1L / RFU, BET1 / Fold change vs veh, BET1 / RFU, CNOT2 / Fold change vs veh, CNOT2 / RFU, ZNF268 / Fold change vs veh, ZNF268 / Fold change vs veh, ZNF507 / RFU, DGCR2 / Fold change vs veh, DGCR2 / RFU, WDSUB1 / Fold change vs veh, WDSUB1 / Fold change vs veh, HSP90B1 /// MIR3652 / RFU, ADSS / Fold change vs veh, ADSS / RFU, GK / Fold change vs veh, GK / RFU, ZNF148 / Fold change vs veh, ZNF148 / RFU, TAF9 / Fold change vs veh, TAF9 / RFU, SLC1A5 / Fold change vs veh, SLC1A5 / RFU, SLMO2 / Fold change vs veh, SLMO2 / RFU, ABCC4 / Fold change vs veh, ABCC4 / RFU, LOC101060439 /// RAP1B / Fold change vs veh, LOC101060439 /// RAP1B / RFU, RFX7 / Fold change vs veh, RFX7 / RFU, GTPBP10 / Fold change vs veh, GTPBP10 / RFU, CNEP1R1 / Fold change vs veh, CNEP1R1 / RFU, BIVM-ERCC5 /// ERCC5 / Fold change vs veh, BIVM-ERCC5 /// ERCC5 / RFU, ILF3 / Fold change vs veh, ILF3 / RFU 11762660_at / Fold change /veh 11762660_at / RFU VCAN (11757783_s_at) / Fold change /veh VCAN (11757783_s_at) / RFU DDX43 (11728927_at) / Fold change /veh DDX43 (11728927_at) / RFU KRT8 (11758188_x_at) / Fold change /veh KRT8 (11758188_x_at) / RFU NKD1 (11759106_at) / Fold change /veh NKD1 (11759106_at) / RFU SRD5A1 (11742802_a_at) / Fold change /veh SRD5A1 (11742802_a_at) / RFU TPSAB1 /// TPSB2 (11721975_s_at) / Fold change /veh TPSAB1 /// TPSB2 (11721975_s_at) / RFU GSTM3 (11746129_a_at) / Fold change /veh GSTM3 (11746129_a_at) / RFU IL23R (11737362_x_at) / Fold change /veh IL23R (11737362_x_at) / RFU TMEM51 (11727254_a_at) / Fold change /veh TMEM51 (11727254_a_at) / RFU PIWIL2 (11732686_x_at) / Fold change /veh PIWIL2 (11732686_x_at) / RFU ORM1 (11744905_x_at) / Fold change /veh ORM1 (11744905_x_at) / RFU CCDC152 (11743942_at) / Fold change /veh CCDC152 (11743942_at) / RFU ECM1 (11717891_a_at) / Fold change /veh ECM1 (11717891_a_at) / RFU IL23R (11748794_a_at) / Fold change /veh IL23R (11748794_a_at) / RFU TNFAIP8L3 (11732012_x_at) / Fold change /veh TNFAIP8L3 (11732012_x_at) / RFU MBOAT4 (11741988_at) / Fold change /veh MBOAT4 (11741988_at) / RFU 11764193_at / Fold change /veh 11764193_at / RFU TMEM53 (11763286_at) / Fold change /veh TMEM53 (11763286_at) / RFU MAGEB2 (11727129_at) / Fold change /veh MAGEB2 (11727129_at) / RFU TMEM200A (11744735_a_at) / Fold change /veh TMEM200A (11744735_a_at) / RFU CCDC152 (11751479_a_at) / Fold change /veh CCDC152 (11751479_a_at) / RFU FAM211A (11726209_a_at) / Fold change /veh FAM211A (11726209_a_at) / RFU RGS16 (11746705_a_at) / Fold change /veh RGS16 (11746705_a_at) / RFU VCAN (11755009_s_at) / Fold change /veh VCAN (11755009_s_at) / RFU RHOB (11743442_s_at) / Fold change /veh RHOB (11743442_s_at) / RFU RGS16 (11720943_a_at) / Fold change /veh RGS16 (11720943_a_at) / RFU RGS16 (11720944_at) / Fold change /veh RGS16 (11720944_at) / RFU, VPS4B / Fold change vs veh, VPS4B / RFU, CREB1 / Fold change vs veh, CREB1 / RFU, DNAJC13 / Fold change vs veh, DNAJC13 / RFU, GNAQ / Fold change vs veh, GNAQ / RFU, CDK5R1 / Fold change vs veh, CDK5R1 / RFU, ZRANB3 / Fold change vs veh, ZRANB3 / RFU, CUL4A / Fold change vs veh, CUL4A / RFU, CCNY / Fold change vs veh, CCNY / RFU, UFL1 / Fold change vs veh, UFL1 / RFU, COG3 / Fold change vs veh, COG3 / RFU, DIAPH2 / Fold change vs veh, DIAPH2 / RFU, SKA2 / Fold change vs veh, SKA2 / RFU, AFF3 / Fold change vs veh, AFF3 / RFU, LMF1 / Fold change vs veh, LMF1 / RFU, IPO11 / Fold change vs veh, IPO11 / RFU, DFFB / Fold change vs veh, DFFB / RFU, FOXP1 / Fold change vs veh, FOXP1 / RFU, CARD8 / Fold change vs veh, CARD8 / RFU, STRN3 / Fold change vs veh, STRN3 / RFU, ADK / Fold change vs veh, ADK / RFU, RASSF2 / Fold change vs veh, RASSF2 / RFU, WIPF1 / Fold change vs veh, WIPF1 / RFU, LARP1B / Fold change vs veh, LARP1B / RFU, RASA1 / Fold change vs veh, RASA1 / RFU, RB1 / Fold change vs veh, RB1 / RFU, PPFIA1 / Fold change vs veh, PPFIA1 / RFU, MAT2A / Fold change vs veh, MAT2A / RFU, CCT5 / Fold change vs veh, CCT5 / RFU, WDR92 / Fold change vs veh, WDR92 / RFU, CUX1 / Fold change vs veh, CUX1 / RFU, TTC7A / Fold change vs veh, TTC7A / RFU, TMEM135 / Fold change vs veh, TMEM135 / RFU, DEPTOR / Fold change vs veh, DEPTOR / RFU, CPM / Fold change vs veh, CPM / RFU, DNAJB6 / Fold change vs veh, DNAJB6 / RFU, CACNA2D3 / Fold change vs veh, CACNA2D3 / RFU, DTX4 / Fold change vs veh, DTX4 / RFU, TFCP2 / Fold change vs veh, TFCP2 / RFU, GMCL1 /// GMCL1P1 / Fold change vs veh, GMCL1 /// GMCL1P1 / RFU, AEBP2 / Fold change vs veh, AEBP2 / RFU, SNHG1 /// SNORD22 /// SNORD25 /// SNORD26 /// SNORD27 /// SNORD28 /// SNORD29 /// SNORD31 / Fold change vs veh, SNHG1 /// SNORD22 /// SNORD25 /// SNORD26 /// SNORD27 /// SNORD28 /// SNORD29 /// SNORD31 / Fold change (Aza/veh), C12orf56 (ProbeSet 11735607_a_at) / Fold change (ACY-1035/veh), C12orf56 (ProbeSet 11735607_a_at) / Fold change (Aza/veh), FGFR1OP (ProbeSet 11751329_s_at) / Fold change (ACY-1035/veh), FGFR1OP (ProbeSet 11751329_s_at) / Fold change (Aza/veh), VPS36 (ProbeSet 11739960_a_at) / Fold change (ACY-1035/veh), VPS36 (ProbeSet 11739960_a_at) / RFU SYPL1 (11715823_x_at) / Fold change /veh SYPL1 (11715823_x_at) / RFU IGFBP7 (11715501_s_at) / Fold change /veh IGFBP7 (11715501_s_at) / RFU REEP3 (11722064_at) / Fold change /veh REEP3 (11722064_at) / RFU IGLL1 (11728026_x_at) / Fold change /veh IGLL1 (11728026_x_at): dose or concentration left out as unconfirmed
Conditions: ProbeSet 11723930_at; LIST D

## Nc1ccc(-c2cccs2)cc1NC(=O)c1ccc2c(c1)cc(C1CC1)n2CCN1CCOCC1 [ACY-1035]
  RFU, CCT5: 132.28 RFU
